The results in this text go back to paper PMC7782499, “Progerinin, an optimized progerin-lamin A binding inhibitor, ameliorates premature senescence phenotypes of Hutchinson-Gilford progeria syndrome” (Communications Biology, 2021).

Each structure is given as a SMILES string.

For the assay, the system named is Lmna G609G/+ mouse. The assay is described as follows: Life span of Lmna G609G/+ mice. In kind it is in vivo. The source says: Fig. 3 In vivo favorable effect of SLC-D011. A Gross morphology of Lmna^G609G/G609G mice (10 weeks old) was ameliorated after injection with SLC-D011. At the same age, the experimental group (D011) of mice were larger than vehicle-injected control (Con) subjects regardless of gender. B, C SLC-D011 increases body weight B and extends life span C of Lmna^G609G/G609G progeria model mouse (Con: n = 8; SLC-D011: n = 8). Compared with 14.8 weeks of average (ave) life span with maximum (max) life span of 15.5 weeks, 20 mg/kg of intraperitoneal (i.p) injection (twice a week) of SLC-D011 could extend the life span upto 19 weeks (max = 21 weeks). Lmna^G609G/G609G mice were injected with SLC-D011 from age of 5-week old, *p < 0.05. D Gross morphology of SLC-D011 injected Lmna^G609G/+ mouse. […] E SLC-D011 increases body weights of Lmna^G609G/+ mice (Con: n = 10; SLC-D011: n = 11), *p < 0.05. F Favorable effect of SLC-D011 on life span of Lmna^G609G/+ mice. Compared with vehicle-injected control group (ave = 46.7 weeks and max = 48 weeks), SLC-D011 treatment obviously extended the average life span to 63 weeks (max = 64 weeks). The injection was started from 32 weeks old, **p < 0.001. “Con” means vehicle (a solvent composed of DMSO and PBS)-injected mouse group. TEXT PRINTED IN THE PICTURE: (C) D011: Kaplan-Meier survival curve in Lmna^G609G/G609G: Ave=19; Kaplan-Meier survival curve in Lmna^G609G/G609G: Max=21 | (F) D011: Kaplan-Meier survival curve in Lmna^G609G/+: Ave=63; Kaplan-Meier survival curve in Lmna^G609G/+: Max=64 DOUBTS OF THE COPYIST ABOUT THIS PICTURE: Panels C and F: the Ave/Max labels are not printed with a group name. They are assigned to D011 (solid curve) or Con (dashed curve) only by their position beside the curves. / Panel C Ave=14.8, Max=15.5 and panel F Ave=46.7, Max=48 stand beside the dashed Con curve. They are left out because Con is the control group, not a substance. / No unit is printed with the Ave/Max values. Only the axis reads Age (weeks).
Animal experiments were performed in a facility certified by the Association for Assessment and Accreditation of Laboratory Animal Care in compliance with animal policies approved by Pusan National University. The mouse work was performed under the study protocol PNU-2019-2181, as approved by the Institutional Animal Care and Use Committee. Lmna^G609G/609G mice were generated by timed mating of heterozygous Lmna^G609G/+ provided by Carlos López-Otín (Universidad de Oviedo, Asturias, Oviedo, Spain). SLC-D011 was mixed with dimethyl sulfoxide (DMSO) and phosphate-buffered saline (PBS). It was then intraperitoneally injected into mice (20 mg/kg twice per week from 5-week-old). SLC-D011 and lonafarnib were orally administrated to mice daily at a concentration of 10 mg/ml in monoolein-based solution. Lonafarnib was generously provided by Merck, the Progeria Research Foundation (PRF) and the PRF Lonafarnib Pre-clinical Drug Supply Program. Control mice were treated with monoolein-based solution alone in the same way. Lmna^G609G/609G mice were treated with clear chemical solution throughout the life span, starting from 5 weeks of age. Lmna^G609G/+ mice were treated via intraperitoneal and oral administrations, starting from 32 weeks of age.
Fig. S10. Or al administration of SLC-D011 suppresses premature aging features of LmnaG609G/+ mi c e . A.
Gross morphology of SLC-D011 treated Lmna G609G/+ mice at 36 weeks old. […]

Consider `CC1(C)Oc2cc3oc(=O)ccc3cc2C[C@@H]1OC/C=C/c1ccccc1` [SLC-D011], for which the Average life span is on record as 63 weeks (i.p. injection from 32 weeks old); 64.9 weeks (oral 50 mg/kg daily, 50 mg/kg); 65 weeks (oral 50 mg/kg daily, listed as progerinin, 50 mg/kg). Further, for the setting “i.p. injection, longer than control (untreated)”, the “Extension of life span” value is reported as ~ 16 weeks. This compound also showed a Maximum life span (oral 50 mg/kg daily) of 65.5 weeks.
